Experimental data as given in patent US20080227813A1, “Pharmaceutical compositions and methods for treating diseases associated with neurodegeneration” (priority 2006, published 2008).

Experiments:
[1] = tested on: Salmonella typhimurium strains TA98, TA100, TA1537, TA1535 and Escherichia coli WP2 uvrA; test: Genotoxicity in bacterial assays; type: cell-based; conditions: up to 5000 μg test item/plate, with and without rat liver fraction
mSOD1^(G93A) mice = test: Lifespan and disease progression in mSOD1(G93A) ALS mice; type: in vivo, mouse
Description: Nat. Med. 10(4), p. 345-7 (2004), which is incorporated by reference.
Thus, Compound I-treated mice lived an average of 153 days (±2.6 SEM, n=7). This represents a significant increase in lifespan of over 22% (p=<0.001). The effect of beginning Compound I treatment at the time of disease onset was also tested by starting treatment at 70 days of age, when the first signs of locomotor defects are observed. Compound I treatment from 70 days of age extended the mean lifespan of mSOD1^(G93A) mice by 23 days, from 125 days (±1.8 SEM, n=18) in the untreated group to 148 days (±1.5 SEM, n=5) in the treated group. This represents an increase in lifespan of 18% (p=<0.001).

[2] = tested on: healthy young male subjects; conditions: human, single oral doses 50-800 mg
Description: The study was conducted in 12 volunteers, in accordance with the Helsinski Declaration, European Good Clinical Practices and Huriet law. The volunteers were divided into two groups (n=6 in each group).
The dose was administered orally, under medical supervision, after a 10 h abstinence from food. No concomitant medication was allowed within the period of time from the screening examination to 24 h after the last administration.

patients with ALS [3] = conditions: high dose
Description: A clinical trial was conducted to assess the safety and tolerability of Compound I, at three dosages (75, 150, and 300 mg/day) as compared with placebo over 12 weeks of treatment in 80 patients with ALS. It was also conducted to determine the pharmacokinetic characterization of Compound I in serum, as well as cerebrospinal fluid (CSF) penetration, in a subset of the 80 patients participating in the study. This information was correlated with safety measures.
Methodology: This study was a multicenter, double-blind, placebo-controlled study of outpatients with ALS. Eighty subjects at 8-10 centers were enrolled. Subjects received placebo, 25 mg tid, 50 mg tid or 100 mg tid Compound I daily. All 80 subjects received treatment to determine safety and tolerability after 12 weeks of daily treatment. Follow-up visits occurred at 2, 4, 6, 8, 10, 12, and 16 weeks. A subset of participants were admitted to the General Clinical Research Center (GCRC), clinical research center or other department for serum pharmacokinetic studies at Baseline and Week 4, with additional trough serum sampling at Weeks 2, 8, and 12. Cerebrospinal fluid (CSF) penetration was only be evaluated at Week 4.

patients with ALS [4] = tested on: patients with ALS
Description: An open label extension study was conducted in patients from Example 23 who completed 12 weeks of treatment and a Week 16 Follow-up Visit. Subjects received 100 mg tid Compound I daily for approximately six months. Visits occurred at Screening, Baseline, and once a month for six months (total of 8 visits). A telephone call at Month 7 ended subject participation in the study.
Disease Progression: There are four main indicators of disease progression that can be measured accurately in these time frames; ALSFRS-R, % VC, weight, and body mass index. The analysis assumed that any subject who dropped out (or died) had the worst possible outcome, based on an analysis by Finkelstein and Schoenfeld (Stat. Med. 1999 18:1341-54). This non-parametric analysis orders outcomes so that subjects who dropped out (or died) were considered to have a worse outcome than subjects who lived. For comparison these characteristics for the placebo group in the Celebrex® trial are included.

Beagle dogs = test: 110-day repeated dose oral toxicity study in dogs; type: in vivo, dog
Description: Evaluation […] involving control and three dose groups of 50, 80 and 160 mg/kg/day (equal to 31.0 mg/kg, 49.6 mg/kg and 99.2 mg/kg free base).

[5] = Relative animal toxicokinetic and human pharmacokinetic drug exposures; type: in vivo; conditions: maximum human drug exposure (100 mg tid) = 1.0
CRL: NMRI BR mice = conditions: mouse, 5000 mg/kg
Description: On the basis of acute oral toxicity of test item Compound I in CRL: NMRI BR mice the dose level 5000 mg/kg (equal to 3101 mg/kg free base) was examined in the micronucleus test.

[6] = treatment from 70 days of age, vs untreated
[7] = 69 assigned to treatment, 100 mg tid, 6 months
[8] = number of patients, open-label 100 mg tid
[9] = vs placebo cohort of the Celebrex® study (historical control)
[10] = dog, 50, 80, 160 mg/kg/day oral

For `[O-][n+]1cccc(/C(Cl)=N/OC[C@H](O)CN2CCCCC2)c1` [Compound I, N-[2-hydroxy-3-(1-piperidinyl)-propoxy]-pyridine-1-oxide-3-carboximidoyl chloride], the mutagenic activity [1] was “no mutagenic activity”, the average lifespan (mSOD1^(G93A) mice; 10 mg/kg ip daily from 35 days of age, untreated 125 days) was 153 days and the mean lifespan (mSOD1^(G93A) mice; 10 mg/kg ip daily from 70 days of age, untreated 125 days) was 148 days. For the same molecule, the progression of disease (mSOD1^(G93A) mice; ALS transgenic mouse model) was “significantly delayed the progression of disease”, the extension of survival (mSOD1^(G93A) mice; given pre-symptomatically and at disease onset, study rationale statement) was “five weeks” and the increase in lifespan (mSOD1^(G93A) mice; treatment from 35 days of age, vs untreated) was “over 22%”. For the same molecule, the “extension of mean lifespan” value (mSOD1^(G93A) mice; [6]) was 23 days, the increase in lifespan (mSOD1^(G93A) mice; [6]) was 18% and the “changes in safety parameters (laboratory parameters, vital signs, ECGs)” value [2] was “No changes in any safety parameters”. The “serious adverse events or deaths” value [2] was “no serious adverse events or deaths”, the “effect on ALSFRS-R” value (patients with ALS [3]; patients also treated with riluzole, not statistically significant) was “may improve ALSFRS-R” and the “effect on average ALSFRS-R score” value (patients with ALS [3]; patients not treated with riluzole) was “no effect”. The safety and tolerability (patients with ALS [4]; 6 month dosing) was “safe and well tolerated”, the “% Early Study Medication Discontinuation” value (patients with ALS [4]; [7]) was 11.6% and the “Completed Trial on Treatment” value (patients with ALS [4]; [7]) was 61. The “Early Study Medication Discontinuation” value (patients with ALS [4]; [7]) was 8, the “treatment discontinuation: Adverse Event” value (patients with ALS [4]; [8]) was 1 and the “treatment discontinuation: Death” value (patients with ALS [4]; [8]) was 1. The “treatment discontinuation: Other Reasons” value (patients with ALS [4]; [8]) was 0, the “treatment discontinuation: Reason not listed” value (patients with ALS [4]; [8]) was 0 and the “treatment discontinuation: Withdrew Consent” value (patients with ALS [4]; [8]) was 6. The “# Early Study Medication Discontinuations per Month” value (patients with ALS [4]; over 6-months) was 1.33, the “rate of ALSFRS-R decline” value (patients with ALS [4]; patients co-administered with riluzole vs without) was “no apparent difference” and the “progression of Vital Capacity (VC)” value (patients with ALS [4]; patients treated with riluzole in addition to Compound I vs those not treated with riluzole) was “appeared to progress more slowly”. For the same molecule, the “change in serum creatinine levels” value (patients with ALS [4]; screening vs 6-month) was “no significant change”, the “slower decline by % VC” value (patients with ALS [4]; [9]) was 7.6% and the “slower decline by ALSFRS-R” value (patients with ALS [4]; [9]) was 21.4%. The “slower decline by BMI” value (patients with ALS [4]; [9]) was 20.4%, the “slower decline by weight” value (patients with ALS [4]; [9]) was 22.8% and the “amount of metabolite No. 1” value (human hepatocytes) was 0.64 % of the total radioactivity. For the same molecule, the “amount of metabolite No. 2” value (human hepatocytes) was 0.60 % of the total radioactivity, the “amount of metabolite No. 3” value (human hepatocytes) was 0.80 % of the total radioactivity and the “amount of metabolite No. 4” value (human hepatocytes) was 0.62 % of the total radioactivity. For the same molecule, the “amount of metabolite No. 5 (bimoclomol)” value (human hepatocytes) was 2.59 % of the total radioactivity, the clearance (human hepatocytes; human, hepatocytes) was 0.040 mL/h and the t1/2 (human hepatocytes; human, hepatocytes) was 17.2 h. For the same molecule, the “ECG and ophthalmological alterations” value (Beagle dogs; [10]) was “No ECG and opthalmological alterations”, the mortality (Beagle dogs; [10]) was “No animals died” and the NOEL (Beagle dogs; dog, both sexes, oral once daily for 112 days) was 50 mg/kg/day. For the same molecule, the “Fold-above minimum effective mouse exposure” value ([5]; AUC) was 12, the “Fold-above minimum effective rat exposure” value ([5]; AUC) was 5.9 and the “Fold-below dog drug exposure at NOAEL” value ([5]; AUC) was 17. For the same molecule, the “Fold-below rat drug exposure at NOAEL” value ([5]; AUC) was 6.0, the “Fold-above minimum effective mouse exposure” value ([5]; Cmax) was 2.8 and the “Fold-above minimum effective rat exposure” value ([5]; Cmax) was 1.4. The “Fold-below dog drug exposure at NOAEL” value ([5]; Cmax) was 5, the “Fold-below rat drug exposure at NOAEL” value ([5]; Cmax) was 28 and the mutagenicity in vivo (CRL: NMRI BR mice) was “non-mutagenic”. The “number of micronucleated polychromatic erythrocytes (MPCEs)” value (CRL: NMRI BR mice; in vivo) was “did not induce a significant increase”, the “amount of metabolite No. 1” value (rat hepatocytes) was 0.32 % of the total radioactivity and the “amount of metabolite No. 2” value (rat hepatocytes) was 1.89 % of the total radioactivity. For the same molecule, the “amount of metabolite No. 3” value (rat hepatocytes) was 47.7 % of the total radioactivity, the “amount of metabolite No. 4” value (rat hepatocytes) was 15.1 % of the total radioactivity and the clearance (rat hepatocytes; rat, hepatocytes) was 0.84 mL/h. It also gave a t1/2 (rat hepatocytes; rat, hepatocytes) of 49.2 min.
